Measurements taken from patent US9073892B2, “Indazolyl triazol derivatives” (Merck Serono S.A., priority 2010, dated 2015).
Structures can show the parent of a compound that is named as a salt.

Legend:
[1] = tested on: IL1β-induced IL8 release in THP1 cells; test: IRAK IL8 secretion functional assay; type: cell-based; conditions: Homo sapiens; THP-1 cells, IL1β 100 ng/ml overnight, IL8 by HTRF; read-out: IC50, Secretion THP-1/IL-β induced IL8 release
In short: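 THP-1 cells (30,000/well, RPMI 1640) were incubated overnight at 37 °C, 5% CO2 with compound (20 μM to 1 nM) plus IL1β at 100 ng/ml final. IL-8 in the supernatant was measured by HTRF with europium cryptate- and XL665-labelled anti-IL8 antibodies, read after 3 h at 30 °C.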

[2] = tested on: IL-6 secretion in human PBMC; test: IRAK IL-6 secretion functional assay in human PBMC; type: cell-based; conditions: preincubated 1 h with test article, stimulated with 10 ng/ml IL1, 18-20 h, ELISA
Procedure: IRAK IL-6 Secretion Functional Assay in Human PBMC
Human PBMCs from healthy volunteers were purified from buffy coats of heparinized whole blood by density centrifugation on Ficoll-Hypaque. Isolated PBMCs were washed twice in PBS, counted, and seeded at a density of 7×10^4 cells/well in 180 µl of complete RPMI 1640 medium containing 10% heat-inactivated FBS. PBMC were preincubated for 1 h with serial dilutions of test article dissolved in DMSO (final DMSO concentration 0.33%) at 37° C. in a 5% CO2 incubator. PBMC were then stimulated with 10 ng/ml of IL1-(final volume […]) and incubation was continued for 18-20 h. The supernatants were collected and IL-6 was quantified using the Duo-set ELISA kit (R&D Systems) following manufacturer's instructions

[3] = tested on: LPS-induced TNFα release; test: LPS-induced cytokine release in mice (TNFα); type: in vivo; conditions: female C57B6 mice; for inhibition of LPS-induced TNFα release in mice: 30 min before LPS 1 mg/kg i.p., serum 2 hours after LPS
Procedure: (§1) LPS-Induced Cytokine Release in Mice
(§2) Female C57B6 mice (8-10 weeks 4-6 mice/group) were dosed p.o. with vehicle (40% Kleptose in water), reference compound dexamethasone (1 mg/kg) or three different doses of compound 1 (10, 30 and 60 mg/kg at 10 mL/kg). 30 minutes after compound administrations mice were injected i.p. with LPS (0111:B4, 1 mg/kg). 2 hours after LPS injection mice were sacrificed. Serum was collected; cytokine levels (TNF-α and IL-6) were detected by ELISA or OBA.

[4] = tested on: T1, IRAK1/4 human; test: IRAK1/4 phosphorylation IC50 (enzymatic assay, table 2); type: biochemical; conditions: human IRAK1/4 phosphorylation
T1 construct: fused on or other part: His tag and TEV cleavage site at the N-terminus
In short: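 Human IRAK-1 or IRAK-4, each carrying a His-TEV tag, was incubated with ATP and compounds in DMSO ranging from 20 µM to 1 nM in 384-well plates, and IRAK-4 reactions also contained STK1-biotin peptide. Reactions ran in 50 mM Hepes pH7.0 with MgCl2, DTT, EGTA and BSA for 2 or 3 hours, with 2% DMSO controls. Inhibition is given as IC50.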

[5] = tested on: LPS-induced IL-6 release; test: LPS-induced cytokine release in mice (IL-6); type: in vivo; conditions: female C57B6 mice; for inhibition of LPS-induced IL-6 release in mice: 30 min before LPS 1 mg/kg i.p., serum 2 hours after LPS
Procedure: as §1, §2

Compound `Cc1ccc2c(-c3cn(-c4ccc(C5CCNCC5)cc4)nn3)n[nH]c2c1` (as salt: HCl) [Example 265] has a melting point of 303 °C.
For `O=C(c1ccc(-n2cc(-c3n[nH]c4ccccc34)nn2)cc1)N1CCOCC1` [Example 1, 3-{1-[4-(morpholin-4-ylcarbonyl)phenyl]-1H-1,2,3-triazol-4-yl}-1H-indazole], the IC50 [1] was 100 to 1000 nM, the IC50 [2] was 200 to 2000 nM and the “LPS-induced TNFα release in mice (result in words)” value ([3]; 10, 30 and 60 mg/kg p.o.) was “inhibits dose dependently”. For the same compound, the “inhibition of LPS-induced TNFα release in mice” value ([3]; 10 mpk po) was 36% INH, the “inhibition of LPS-induced TNFα release in mice” value ([3]; 30 mpk po) was 43% INH and the “inhibition of LPS-induced TNFα release in mice” value ([3]; 60 mpk po) was 61% INH. The IC50 [4] was 100 to 1000 nM, the “LPS-induced IL-6 release in mice (result in words)” value ([5]; 10, 30 and 60 mg/kg p.o.) was “inhibits dose dependently” and the “inhibition of LPS-induced IL-6 release in mice” value ([5]; 10 mpk po) was 9% INH. The “inhibition of LPS-induced IL-6 release in mice” value ([5]; 30 mpk po) was 25% INH and the “inhibition of LPS-induced IL-6 release in mice” value ([5]; 60 mpk po) was 66% INH.
With `O=C(c1ccc(-n2cc(-c3n[nH]c4ccccc34)nn2)cc1)N1CCCC(CN2CCCC2)C1` (stereo not shown) [Example 2, 3-[1-(4-{[3-(pyrrolidin-1-ylmethyl)piperidin-1-yl]carbonyl}phenyl)-1H-1,2,3-triazol-4-yl]-1H-indazole] the IC50 [1] was < 100 nM, the IC50 [2] was 200 to 2000 nM and the IC50 [4] was < 100 nM.
Compound `Cc1ccc2[nH]nc(-c3cn(-c4ccc(CN5CCOCC5)cc4)nn3)c2c1` [Example 7, 5-methyl-3-{1-[4-(morpholin-4-ylmethyl)phenyl]-1H-1,2,3-triazol-4-yl}-1H-indazole] has an IC50 [1] of 100 to 1000 nM, an IC50 [2] of 200 to 2000 nM and an IC50 [4] of 100 to 1000 nM.
In the case of `O=C(c1ccc(-n2cc(-c3n[nH]c4ccccc34)nn2)cc1)N1CCCC(O)C1` (stereo not shown) [Example 30], the IC50 [1] is reported as 100 to 1000 nM, the IC50 [2] is reported as 200 to 2000 nM and the IC50 [4] is reported as 100 to 1000 nM.
In the case of `O=C(c1ccc(-n2cc(-c3n[nH]c4ccccc34)nn2)cc1)N1CCCC(CO)C1` (stereo not shown) [Example 33], the IC50 [1] is reported as 100 to 1000 nM, the IC50 [2] is reported as < 200 nM and the IC50 [4] is reported as < 100 nM.
Compound `O=C(c1ccc(-n2cc(-c3n[nH]c4ccccc34)nn2)cc1)N1CCCCC1CCO` (stereo not shown) [Example 117, 2-(1-{4-[4-(1H-indazol-3-yl)-1H-1,2,3-triazol-1-yl]benzoyl}piperidin-2-yl)ethanol] has an IC50 [1] of 100 to 1000 nM and an IC50 [4] of 100 to 1000 nM.
Work on `COCC1CCCN(C(=O)c2ccc(-n3cc(-c4n[nH]c5ccccc45)nn3)cc2)C1` (stereo not shown) [Example 118, 3-[1-(4-{[3-(methoxymethyl)piperidin-1-yl]carbonyl}phenyl)-1H-1,2,3-triazol-4-yl]-1H-indazole] yielded an IC50 [1] of 100 to 1000 nM and an IC50 [4] of 100 to 1000 nM.
For `O=C(c1ccc(-n2cc(-c3n[nH]c4ccccc34)nn2)cc1)N1CCC(N2CCCC2)CC1` [Example 120, 3-(1-{4-[(4-pyrrolidin-1-ylpiperidin-1-yl)carbonyl]phenyl}-1H-1,2,3-triazol-4-yl)-1H-indazole], the IC50 [1] was 100 to 1000 nM and the IC50 [4] was 100 to 1000 nM.
For `O=C(c1ccc(-n2cc(-c3n[nH]c4ccc(C5CCN(CCF)CC5)cc34)nn2)cc1)N1CCOCC1` [Example 121, 5-[1-(2-fluoroethyl)piperidin-4-yl]-3-{1-[4-(morpholin-4-ylcarbonyl)phenyl]-1H-1,2,3-triazol-4-yl}-1H-indazole], the IC50 [1] was 100 to 1000 nM and the IC50 [4] was < 100 nM.
In the case of `Cn1cc(-c2ccc3[nH]nc(-c4cn(-c5ccc(C(=O)N6CCOCC6)cc5)nn4)c3c2)cn1` [Example 123, 5-(1-methyl-1H-pyrazol-4-yl)-3-{1-[4-(morpholin-4-ylcarbonyl)phenyl]-1H-1,2,3-triazol-4-yl}-1H-indazole], the IC50 [1] is reported as < 100 nM and the IC50 [4] is reported as < 100 nM.
For `CN1CCC(c2ccc3[nH]nc(-c4cn(-c5ccc(C(=O)N6CCOCC6)cc5)nn4)c3c2)CC1` [Example 124, 5-(1-methylpiperidin-4-yl)-3-{1-[4-(morpholin-4-ylcarbonyl)phenyl]-1H-1,2,3-triazol-4-yl}-1H-indazole], the IC50 [1] was 100 to 1000 nM, the IC50 [2] was < 200 nM and the IC50 [4] was < 100 nM.
In the case of `CN1C2CCC1CC(n1cc(NC(=O)c3ccc(-n4cc(-c5n[nH]c6ccccc56)nn4)cc3)cn1)C2` (stereo not shown) [Example 125, 4-[4-(1H-indazol-3-yl)-1H-1,2,3-triazol-1-yl]-N-[1-(8-methyl-8-azabicyclo[3.2.1]oct-3-yl)-1H-pyrazol-4-yl]benzamide], the IC50 [1] is reported as 100 to 1000 nM, the IC50 [2] is reported as 200 to 2000 nM and the IC50 [4] is reported as < 100 nM.
In the case of `O=C(c1ccc(-n2cc(-c3n[nH]c4ccccc34)nn2)cc1)N1CCCC(Cn2ccnc2)C1` (stereo not shown) [Example 126, 3-[1-(4-{[3-(1H-imidazol-1-ylmethyl)piperidin-1-yl]carbonyl}phenyl)-1H-1,2,3-triazol-4-yl]-1H-indazole], the IC50 [1] is reported as 100 to 1000 nM and the IC50 [4] is reported as < 100 nM.
For `COC1CCCN(C(=O)c2ccc(-n3cc(-c4n[nH]c5ccccc45)nn3)cc2)C1` (stereo not shown) [Example 127], the IC50 [1] was 100 to 1000 nM and the IC50 [4] was < 100 nM.
With `O=C(Nc1cnn(C2CCNCC2)c1)c1ccc(-n2cc(-c3n[nH]c4ccccc34)nn2)cc1` [Example 128, 4-[4-(1H-indazol-3-yl)-1H-1,2,3-triazol-1-yl]-N-(1-piperidin-4-yl-1H-pyrazol-4-yl)benzamide hydrochloride] the IC50 [1] was 1000 to 5000 nM and the IC50 [4] was 100 to 1000 nM.
`O=C(Nc1cnn(C2CCCNCC2)c1)c1ccc(-n2cc(-c3n[nH]c4ccccc34)nn2)cc1` (stereo not shown) [Example 129, N-(1-azepan-4-yl-1H-pyrazol-4-yl)-4-[4-(1H-indazol-3-yl)-1H-1,2,3-triazol-1-yl]benzamide hydrochloride] gave an IC50 [1] of 1000 to 5000 nM and an IC50 [4] of 100 to 1000 nM.
For `c1ccc2c(-c3cn(-c4ccc(C5CCNCC5)cc4)nn3)n[nH]c2c1` [Example 132, 3-[1-(4-piperidin-4-ylphenyl)-1H-1,2,3-triazol-4-yl]-1H-indazole hydrochloride], the IC50 [2] was 200 to 2000 nM and the IC50 [4] was 100 to 1000 nM.
For `Cc1ccc2c(-c3cn(-c4ccc(C5CCN(CC(O)C(F)(F)F)CC5)cc4)nn3)n[nH]c2c1` (stereo not shown) [Example 136, 1,1,1-trifluoro-3-(4-{4-[4-(6-methyl-1H-indazol-3-yl)-1H-1,2,3-triazol-1-yl]phenyl}piperidin-1-yl)propan-2-ol], the IC50 [2] was 200 to 2000 nM and the IC50 [4] was < 100 nM.
Work on `c1ccc2c(-c3cn(-c4ccc(CN5C[C@@H]6C[C@H]5CO6)cc4)nn3)n[nH]c2c1` [Example 145, 3-(1-{4[(1S,4S)-2-oxa-5-azabicyclo[2.2.1]hept-5-ylmethyl]phenyl}-1H-1,2,3-triazol-4-yl)-1H-indazole] yielded an IC50 [2] of 200 to 2000 nM and an IC50 [4] of 100 to 1000 nM.
For `CN(C)C1CCN(C(=O)c2ccc(-n3cc(-c4n[nH]c5ccc(F)cc45)nn3)cc2)CC1` [Example 158], the IC50 [2] was < 200 nM.
With `c1ccc2c(-c3cn(-c4ccc(CN5CCOCC5)cc4)nn3)n[nH]c2c1` [Example 188] the IC50 [2] was 200 to 2000 nM and the IC50 [4] was 100 to 1000 nM.
For `O=c1ccc(-c2cccnc2)nn1Cc1ccc2[nH]nc(-c3cn(-c4ccc(CN5CCOCC5)cc4)nn3)c2c1` [Example 197], the IC50 [2] was < 200 nM and the IC50 [4] was < 100 nM.
With `O=C(c1ccc(-n2cc(-c3n[nH]c4ccc(C5CCCNC5)cc34)nn2)cc1)N1CCOCC1` (stereo not shown) [Example 204] the IC50 [2] was 200 to 2000 nM and the IC50 [4] was < 100 nM.
`O=C(c1ccc(-n2cc(-c3n[nH]c4cc(-c5cccnc5)ccc34)nn2)cc1)N1CCOCC1` [Example 210] gave an IC50 [2] of 200 to 2000 nM and an IC50 [4] of 100 to 1000 nM.
With `Cc1ccc2c(-c3cn(-c4cnn(C5CC6CCC(C5)N6C)c4)nn3)n[nH]c2c1` (stereo not shown) [Example 224] the IC50 [2] was 200 to 2000 nM and the IC50 [4] was < 100 nM.
With `O=C(NC1CCCNC1)c1ccc2[nH]nc(-c3cn(-c4ccc(CN5CCOCC5)cc4)nn3)c2c1` (stereo not shown) [Example 238] the IC50 [2] was < 200 nM and the IC50 [4] was < 100 nM.
Compound `CN1[C@@H]2CC[C@H]1C[C@@H](c1ccc(-n3cc(-c4n[nH]c5ccccc45)nn3)cc1)C2` [Example 251] has an IC50 [2] of 200 to 2000 nM and an IC50 [4] of 100 to 1000 nM.
For `Cc1ccc2c(-c3cn(-c4ccc(C5CCN(C6CCOCC6)CC5)cc4)nn3)n[nH]c2c1` [Example 298], the IC50 [2] was 200 to 2000 nM and the IC50 [4] was 100 to 1000 nM.
With `C[C@@H]1C[C@H]2[C@@H]3CCC4=CC(=O)C=C[C@]4(C)[C@@]3(F)[C@@H](O)C[C@]2(C)[C@@]1(O)C(=O)CO` [dexamethasone, reference compound] the “inhibition of LPS-induced TNFα release in mice” value ([3]; 1 mpk po) was 97% INH and the “inhibition of LPS-induced IL-6 release in mice” value ([5]; 1 mpk po) was 83% INH.
